# Assay results published in patent US4708872A, “Antitumor antibiotic complex” (Bristol-Meyers Company, priority 1985, dated 1987).
# Where “and” joins values, the source holds several entries; their conditions need not be identical. Equal entries are not always repeated. Where two headings read alike, the source gives them in different places.
# Experiments:
# B16 melanoma = conditions: qd 1-9 ip; dose of preceding T/C line
# Method: (§1) Lymphocytic leukemia P-388, lymphoid leukemia L-1210, melanotic melanoma B16 and Lewis lung carcinoma were implanted intraperitoneally into male BDF1 mice at an inoculum size of 10^6, 10^5, 5×10^5 and 10^6 cells per mouse, respectively. Graded doses of test compounds were administered to the mice intraperitoneally 24 hours after the tumor inoculation.
# (§2) Death or survival of the treated and non-treated mice was recorded daily, and the median survival time (MST) was calculated for each of the test (T) and control (C) groups. […] Second experiments were carried out by intravenous administration of BBM-1675 components against P-388 and L-1210 leukemias, which were inoculated intravenously at 5×10^5 and 10^4 cells per mouse, respectively.
# L-1210 leukemia [1] = conditions: days 1,4,7 iv; dose of preceding T/C line
# L-1210 leukemia [2] = experiment: Intravenously implanted L-1210 leukemia, iv treatment; conditions: days 1,4,7 iv
# Method for Lewis lung carcinoma: as §1, §2
Structure (SMILES),Survivors on day 5 (B16 melanoma),"Survivors on day 5 (Lewis lung carcinoma; mouse, in vivo, ip)","Survivors on day 5 (Lewis lung carcinoma; qd 1-11 ip, dose of preceding T/C line)",MST (L-1210 leukemia [1]) [days],MST (L-1210 leukemia [2]; 16 mg/kg/day),Survivors on day 5 (L-1210 leukemia [2]; 16 mg/kg/day),Survivors on day 45 (L-1210 leukemia [2]; 16 mg/kg/day),MST (L-1210 leukemia [2]; dose of preceding T/C line),Survivors on day 5 (L-1210 leukemia [2]; dose of preceding T/C line)
"CO[C@@H]1[C@H](O)C[C@@H](O[C@@H]2C[C@H](Oc3cc4cc5c(c(O)c4c(O)c3C)C(=O)[C@@H](O[C@H]3C[C@@H](O[C@H]4C[C@@H](O[C@H]6C[C@](C)(O)[C@@H](OC(C)=O)[C@H](C)O6)[C@H](O)[C@@H](C)O4)[C@H](O)[C@@H](C)O3)[C@H]([C@H](OC)C(=O)[C@@H](O)[C@@H](C)O)C5)O[C@H](C)[C@@H]2OC(C)=O)O[C@@H]1C [Chromomycin A3, chromomycin A3]",6/6,5/5,6/6,,,,,,
"COc1cccc2c1C(=O)c1c(O)c3c(c(O)c1C2=O)C[C@@](O)(C(=O)CO)C[C@@H]3O[C@H]1C[C@H](N)[C@H](O)[C@H](C)O1 [Adriamycin, adriamycin]",,,,9.0,tox.,2/6,0/6,12.0 days and 8.0 days,6/6
